Key:
[1] = test system: FADD−/− Jurkat cells; test: Necroptosis inhibition assay, TNF-α-induced necroptosis (CellTiter-Glo 2.0); type: cell-based, human; settings: TNF-α 15 ng/mL; for Necroptosis inhibition assay (Rescue %) 1 μM: compound 1 μM; for Necroptosis inhibition assay (Rescue %) 10 μM: compound 10 μM
In short: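 Tested at three fixed concentrations (0.1, 1, 10 μM final) with a 30-minute room-temperature preincubation ahead of 15 ng/mL TNF-α challenge lasting 20 to 24 hours. Inhibition rate and cytotoxicity derive from ATP luminescence.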

[2] = target: T1, MLKL (Homo sapiens, UniProt Q8NB16); test: MLKL degradation assay in HepG2 cell line (western blot); type: cell-based; parameters: endogenous in cells; host or cells: HepG2 or HaCaT; settings: cell line not given; for Degradation assay (Degradation %) 1 μM: compound 1 μM; for Degradation assay (Degradation %) 10 μM: compound 10 μM
T1 sequence (Q8NB16 1-471): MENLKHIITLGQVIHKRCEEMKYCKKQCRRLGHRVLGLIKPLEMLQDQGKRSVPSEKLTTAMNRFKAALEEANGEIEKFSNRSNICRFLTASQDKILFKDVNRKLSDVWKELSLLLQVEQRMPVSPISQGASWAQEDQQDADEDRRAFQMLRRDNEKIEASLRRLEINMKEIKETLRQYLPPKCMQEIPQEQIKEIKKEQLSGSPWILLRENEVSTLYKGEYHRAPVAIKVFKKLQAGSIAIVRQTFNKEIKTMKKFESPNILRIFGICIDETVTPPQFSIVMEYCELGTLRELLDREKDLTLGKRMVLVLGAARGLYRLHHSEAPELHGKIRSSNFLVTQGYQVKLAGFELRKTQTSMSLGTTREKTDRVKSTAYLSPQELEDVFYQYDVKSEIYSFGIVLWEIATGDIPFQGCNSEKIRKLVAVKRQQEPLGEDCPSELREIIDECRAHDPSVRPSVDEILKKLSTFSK
In short: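 Degradation is judged from MLKL band intensity on immunoblots of HepG2 lysates taken after 20-24 hours of compound at final 1 or 10 μM.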

[3] = target: T1, MLKL; test: Measurement of binding affinity with MLKL receptor (competitive binding assay, Kd); parameters: made in house; host or cells: HEK 293 cell line (T7 phage in E. coli BL21-derived host is also described)
In short: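 Competition binding of kinase tagged with DNA for qPCR detection, expressed in HEK 293 cells, against immobilized ligand on beads. Final DMSO 0.9%. Kd derived from kinase amount in eluates measured by qPCR.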

Row | SMILES | Necroptosis inhibition assay (Rescue %) 1 μM [1] [%] | Necroptosis inhibition assay (Rescue %) 10 μM [1] [%] | Degradation assay (Degradation %) 1 μM [2] [%] | Degradation assay (Degradation %) 10 μM [2] [%] | Kd [3] [nM] | Necroptosis inhibition assay (Rescue %) 1.1 μM ([1]; compound 1.1 µM)
1 | Nc1ncc(-c2cnn(C3CCN(C[C@H]4CC[C@H](CNC(=O)COc5cccc6c5C(=O)N(C5CCC(=O)NC5=O)C6=O)CC4)CC3)c2)nc1C(=O)O[C@@H](C(=O)Nc1ccc(F)cc1)c1ccccc1 (stereo partly drawn) [TDH-345, (R)-2-((4-fluorophenyl)amino)-2-oxo-1-phenylethyl 3-amino-6-(1-(1-(((1r,4r)-4-((2-((2-(2,6-dioxopiperidin-3-yl)-1,3-dioxoisoindolin-4-yl)oxy)acetamido)methyl)cyclohexyl)methyl)piperidin-4-yl)-1H-pyrazol-4-yl)pyrazine-2-carboxylate] | 29.41 | 19.45 | 87.91 | 80.66 | 1.5 | 
2 | Nc1ncc(-c2cnn(C3CCN(C[C@H]4CC[C@H](CNC(=O)COc5ccc6c(c5)C(=O)N(C5CCC(=O)NC5=O)C6=O)CC4)CC3)c2)nc1C(=O)O[C@@H](C(=O)Nc1ccc(F)cc1)c1ccccc1 (stereo partly drawn) [TDH-346, (R)-2-((4-fluorophenyl)amino)-2-oxo-1-phenylethyl 3-amino-6-(1-(1-(((1r,4r)-4-((2-((2-(2,6-dioxopiperidin-3-yl)-1,3-dioxoisoindolin-5-yl)oxy)acetamido)methyl)cyclohexyl)methyl)piperidin-4-yl)-1H-pyrazol-4-yl)pyrazine-2-carboxylate] | 57.41 | 24.57 | 85.62 | 81.91 | 1.2 | 
3 | Nc1ncc(-c2cnn(C3CCN(C[C@H]4CC[C@H](CNC(=O)CNc5cccc6c5C(=O)N(C5CCC(=O)NC5=O)C6=O)CC4)CC3)c2)nc1C(=O)O[C@@H](C(=O)Nc1ccc(F)cc1)c1ccccc1 (stereo partly drawn) [TDH-347, (R)-2-((4-fluorophenyl)amino)-2-oxo-1-phenylethyl 3-amino-6-(1-(1-(((1r,4r)-4-((2-((2-(2,6-dioxopiperidin-3-yl)-1,3-dioxoisoindolin-4-yl)amino)acetamido)methyl)cyclohexyl)methyl)piperidin-4-yl)-1H-pyrazol-4-yl)pyrazine-2-carboxylate] | 23.88 | 12.87 | 77.96 | 85.06 | 1.9 | 
4 | Nc1ncc(-c2cnn(C3CCN(C[C@H]4CC[C@H](CNC(=O)CNc5ccc6c(c5)C(=O)N(C5CCC(=O)NC5=O)C6=O)CC4)CC3)c2)nc1C(=O)O[C@@H](C(=O)Nc1ccc(F)cc1)c1ccccc1 (stereo partly drawn) [TDH-348, (R)-2-((4-fluorophenyl)amino)-2-oxo-1-phenylethyl 3-amino-6-(1-(1-(((1r,4r)-4-((2-((2-(2,6-dioxopiperidin-3-yl)-1,3-dioxoisoindolin-5-yl)amino)acetamido)methyl)cyclohexyl)methyl)piperidin-4-yl)-1H-pyrazol-4-yl)pyrazine-2-carboxylate] | 61.43 | 29.04 | 48.66 | 81.15 | 1.6 | 
5 | Nc1ncc(-c2cnn(C3CCN(C[C@H]4CC[C@H](CNC(=O)C5CCN(c6cccc7c6C(=O)N(C6CCC(=O)NC6=O)C7=O)CC5)CC4)CC3)c2)nc1C(=O)O[C@@H](C(=O)Nc1ccc(F)cc1)c1ccccc1 (stereo partly drawn) [TDH-349, (R)-2-((4-fluorophenyl)amino)-2-oxo-1-phenylethyl 3-amino-6-(1-(1-(((1r,4r)-4-((1-(2-(2,6-dioxopiperidin-3-yl)-1,3-dioxoisoindolin-4-yl)piperidine-4-carboxamido)methyl)cyclohexyl)methyl)piperidin-4-yl)-1H-pyrazol-4-yl)pyrazine-2-carboxylate] | 45.54 | 42.11 | 93.71 | 92.68 | 3.7 | 
6 | Nc1ncc(-c2cnn(C3CCN(C[C@H]4CC[C@H](CNC(=O)C5CCN(c6ccc7c(c6)C(=O)N(C6CCC(=O)NC6=O)C7=O)CC5)CC4)CC3)c2)nc1C(=O)O[C@@H](C(=O)Nc1ccc(F)cc1)c1ccccc1 (stereo partly drawn) [TDH-350, (R)-2-((4-fluorophenyl)amino)-2-oxo-1-phenylethyl 3-amino-6-(1-(1-(((1r,4r)-4-((1-(2-(2,6-dioxopiperidin-3-yl)-1,3-dioxoisoindolin-5-yl)piperidine-4-carboxamido)methyl)cyclohexyl)methyl)piperidin-4-yl)-1H-pyrazol-4-yl)pyrazine-2-carboxylate] | 39.64 | 34.84 | 86.13 | 88.73 | 3.7 | 
7 | Nc1ncc(-c2cnn(C3CCN(C[C@H]4CC[C@H](CNc5cccc6c5C(=O)N(C5CCC(=O)NC5=O)C6=O)CC4)CC3)c2)nc1C(=O)O[C@@H](C(=O)Nc1ccc(F)cc1)c1ccccc1 (stereo partly drawn) [TDH-351, (R)-2-((4-fluorophenyl)amino)-2-oxo-1-phenylethyl 3-amino-6-(1-(1-(((1r,4r)-4-(((2-(2,6-dioxopiperidin-3-yl)-1,3-dioxoisoindolin-4-yl)amino)methyl)cyclohexyl)methyl)piperidin-4-yl)-1H-pyrazol-4-yl)pyrazine-2-carboxylate] | 0.74 | 3.39 | 62.4 | 24.61 | 6.1 | 
8 | Nc1ncc(-c2cnn(C3CCN(C[C@H]4CC[C@H](CNc5ccc6c(c5)C(=O)N(C5CCC(=O)NC5=O)C6=O)CC4)CC3)c2)nc1C(=O)O[C@@H](C(=O)Nc1ccc(F)cc1)c1ccccc1 (stereo partly drawn) [TDH-352, (R)-2-((4-fluorophenyl)amino)-2-oxo-1-phenylethyl 3-amino-6-(1-(1-(((1r,4r)-4-(((2-(2,6-dioxopiperidin-3-yl)-1,3-dioxoisoindolin-5-yl)amino)methyl)cyclohexyl)methyl)piperidin-4-yl)-1H-pyrazol-4-yl)pyrazine-2-carboxylate] | 11.36 | 5.3 | 50.93 | 42.16 | 5.4 | 
9 | Nc1ncc(-c2cnn(C3CCN(C(=O)C4CCN(C(=O)CNc5ccc6c(c5)C(=O)N(C5CCC(=O)NC5=O)C6=O)CC4)CC3)c2)nc1C(=O)O[C@@H](C(=O)Nc1ccc(F)cc1)c1ccccc1 (stereo partly drawn) [TDH-353, (R)-2-((4-fluorophenyl)amino)-2-oxo-1-phenylethyl 3-amino-6-(1-(1-(1-((2-(2,6-dioxopiperidin-3-yl)-1,3-dioxoisoindolin-5-yl)glycyl)piperidine-4-carbonyl)piperidin-4-yl)-1H-pyrazol-4-yl)pyrazine-2-carboxylate] |  | 49.23 | 75.35 | 86.12 | 26 | 55.34 (1.1µM) %
10 | Nc1ncc(-c2cnn(C3CCN(C(=O)c4cn(C5CCN(C(=O)COc6cccc7c6C(=O)N(C6CCC(=O)NC6=O)C7=O)CC5)cn4)CC3)c2)nc1C(=O)O[C@@H](C(=O)Nc1ccc(F)cc1)c1ccccc1 (stereo partly drawn) [TDH-354, (R)-2-((4-fluorophenyl)amino)-2-oxo-1-phenylethyl 3-amino-6-(1-(1-(1-(1-(2-((2-(2,6-dioxopiperidin-3-yl)-1,3-dioxoisoindolin-4-yl)oxy)acetyl)piperidin-4-yl)-1H-imidazole-4-carbonyl)piperidin-4-yl)-1H-pyrazol-4-yl)pyrazine-2-carboxylate] | 31.96 | 35.2 | 68.16 | 66.72 | 1.4 | 
11 | Nc1ncc(-c2cnn(C3CCN(C(=O)c4cn(C5CCN(C(=O)COc6ccc7c(c6)C(=O)N(C6CCC(=O)NC6=O)C7=O)CC5)cn4)CC3)c2)nc1C(=O)O[C@@H](C(=O)Nc1ccc(F)cc1)c1ccccc1 (stereo partly drawn) [TDH-355, (R)-2-((4-fluorophenyl)amino)-2-oxo-1-phenylethyl 3-amino-6-(1-(1-(1-(1-(2-((2-(2,6-dioxopiperidin-3-yl)-1,3-dioxoisoindolin-5-yl)oxy)acetyl)piperidin-4-yl)-1H-imidazole-4-carbonyl)piperidin-4-yl)-1H-pyrazol-4-yl)pyrazine-2-carboxylate] | 22.40 | 26.54 | 59.51 | 61.42 | 1.9 | 
